Reference: article PMC5834214 (PLoS Pathogens, 2018)
Read-outs that look alike come from different tables or passages of the source.

Tests used:
[1] = target: LCMV NP (Strep-NP) (Lymphocytic choriomeningitis virus, UniProt P09992)
[2] = target: eGFP (Aequorea victoria, UniProt P42212, F64L/H231L/S65T)
[3] = test system: scrLCMV/ZsG-P2A-NP; type: cell-based, lymphocytic choriomeningitis virus
[4] = test system: rLCMV/eGFP; assay: microbe, parasite or virus in culture; settings: Mammarenavirus choriomeningitidis, Vero C1008, 48 h, read-out: IC50 (anti-LCMV, eGFP expression)
[5] = test system: rVSV/eGFP; type: cell-based, vesicular stomatitis Indiana virus
[6] = test system: rLCMV/eGFP; type: cell-based, lymphocytic choriomeningitis virus
[7] = test system: rLCMV/eGFP; type: cell-based, lymphocytic choriomeningitis virus; remark: listed apart in the source
[8] = in vitro; settings: human
[9] = test system: rLCMV/eGFP; assay: microbe, parasite or virus in culture; settings: Mammarenavirus choriomeningitidis, A549, 48 h
[10] = test system: rLASV/eGFP; assay: microbe, parasite or virus in culture; type: cell-based, Lassa virus; settings: Mammarenavirus lassaense, A549, 48 h, read-out: IC50 (LASV, eGFP expression)
[11] = test system: rLCMVΔGPC/eGFP; type: cell-based, lymphocytic choriomeningitis virus
[12] = test system: r3JUNV/eGFP; type: cell-based, Junín virus
[13] = in vitro; settings: grivet
[14] = test system: rLCMV/eGFP; type: cell-based, lymphocytic choriomeningitis virus; remark: listed apart in the source
[15] = test system: rLCMV/eGFP; type: cell-based, lymphocytic choriomeningitis virus; remark: listed apart in the source
[16] = test system: LASV Z-mediated budding; type: cell-based, Lassa virus
[17] = test system: LCMV Z-mediated budding; type: cell-based, lymphocytic choriomeningitis virus
[18] = read-out: IC50 (anti-LCMV, eGFP expression)

Chain of LCMV NP (Strep-NP) (P09992 whole entry): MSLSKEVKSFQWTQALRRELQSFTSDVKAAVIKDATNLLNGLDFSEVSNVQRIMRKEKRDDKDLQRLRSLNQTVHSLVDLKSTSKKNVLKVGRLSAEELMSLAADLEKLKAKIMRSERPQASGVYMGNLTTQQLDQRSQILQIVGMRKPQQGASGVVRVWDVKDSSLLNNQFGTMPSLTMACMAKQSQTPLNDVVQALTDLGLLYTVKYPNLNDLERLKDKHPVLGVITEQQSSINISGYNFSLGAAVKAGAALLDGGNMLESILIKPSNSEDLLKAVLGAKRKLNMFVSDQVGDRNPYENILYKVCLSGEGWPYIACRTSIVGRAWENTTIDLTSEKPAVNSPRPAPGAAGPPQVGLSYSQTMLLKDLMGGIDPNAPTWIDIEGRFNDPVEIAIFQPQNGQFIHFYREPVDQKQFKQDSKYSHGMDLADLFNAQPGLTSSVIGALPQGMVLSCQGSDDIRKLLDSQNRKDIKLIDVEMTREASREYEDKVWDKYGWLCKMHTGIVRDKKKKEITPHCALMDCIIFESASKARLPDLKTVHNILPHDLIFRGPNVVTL

| Compound | IC50 [4] | Multiplication of VSV [5] | cell entry of LCMV [7] | number of eGFP+ cells [7] | CC50 [8] | IC50 [9, 18] | IC50 [10] | reporter eGFP expression (virus RNA synthesis) [11] | JUNV multiplication [12] | CC50 [13] | production of infectious LCMV progeny [14] | eGFP expression in infected cells [15] | further results |
| --- | --- | --- | --- | --- | --- | --- | --- | --- | --- | --- | --- | --- | --- |
| SPTAN1 | – | – | – | – | – | – | – | – | – | – | – | – | Spectral count NP Average [1]: 4; Spectral count NP Exp. 1 [1]: 4; Spectral count NP Exp. 2 [1]: 4; Spectral count eGFP Average [2]: 0; Spectral count eGFP Exp. 1 [2]: 0; Spectral count eGFP Exp. 2 [2]: 0 |
| C[C@@H]1O[C@@H](O[C@H]2C[C@@H](O)[C@]3(CO)[C@H]4[C@H](O)C[C@]5(C)[C@@H](C6=CC(=O)OC6)CC[C@]5(O)[C@@H]4CC[C@]3(O)C2)[C@H](O)[C@H](O)[C@H]1O [ouabain] | 18.4 nM | not significantly affected | neither ouabain nor rocaglamide inhibited cell entry of LCMV | reduced at all time-of-addition points compared to vehicle | 28.9 nM | 5.79 nM | 9.34 nM | did not affect reporter eGFP expression | strongly suppressed JUNV multiplication | 70 nM | reduced | strong dose-dependent inhibition of eGFP expression | assembly de novo of extracellular infectious virus (GP-incorporation efficiency) [3]: did not inhibit assembly de novo of extracellular infectious virus; assembly de novo of extracellular infectious virus (virus titers in TCS) [6]: did not inhibit assembly de novo of extracellular infectious virus; IC50 ([9]; read-out: IC50 as log10 (converted)): 5.79 nM; eGFP expression intensity in infected cells [15]: did not affect eGFP expression intensity |
| COc1ccc([C@@]23Oc4cc(OC)cc(OC)c4[C@]2(O)[C@H](O)[C@H](C(=O)N(C)C)[C@H]3c2ccccc2)cc1 [rocaglamide] | 9.75 nM | not significantly affected | neither ouabain nor rocaglamide inhibited cell entry of LCMV | negligible number of eGFP^+ cells | > 1000 nM | 9.51 nM | 37 nM | reduced eGFP expression | strongly suppressed JUNV multiplication | 100 nM | reduced | dose-dependent rocaglamide inhibition of eGFP expression | LASV Z budding efficiency [16]: caused a reduction; LCMV Z budding efficiency [17]: caused a reduction |
| C[C@]12CC[C@H](O)C[C@H]1CC[C@@H]1[C@@H]2CC[C@]2(C)[C@@H](c3ccc(=O)oc3)CC[C@]12O [bufalin] | 12.5 nM | – | – | – | 16.4 nM | 1.85 nM | 1.66 nM | – | strongly suppressed JUNV multiplication | 73.8 nM | – | – | – |
